Measurements published in patent US7053107B2, “Indazole compounds and pharmaceutical compositions for inhibiting protein kinases, and methods for their use” (Agouron Pharmaceuticals, Inc., priority 2002, dated 2006).

Columns and labels:
[1] = Human Liver Microsome (HLM) Assay; assay type: in vitro ADME
Experimental: Compound metabolism in human liver microsomes was measured by LC-MS analytical assay procedures as follows. First, human liver microsomes (HLM) were thawed and diluted to 5 mg/mL with cold 100 mM potassium phosphate (KPO4) buffer. Appropriate amounts of KPO4 buffer, NADPH-regenerating solution (containing B-NADP, glucose-6-phosphate, glucose-6-phosphate dehydrogenase, and MgCl2), and HLM were preincubated in 13×100 mm glass tubes at 37 C. for 10 min. (3 tubes per test compound—triplicate). Test compound (5 µM final) was added to each tube to initiate reaction and was mixed by gentle vortexing, followed by incubation at 37° C. […] Samples were centrifuged at 4000 rpm for 20 min. to precipitate proteins and salt (Beckman Allegra 6KR, S/N ALK98DO6, #634). Supernatant was transferred to new 12×75 mm glass tubes and evaporated by Speed-Vac centrifugal vacuum evaporator. Samples were reconstituted in 200 μL 0.1% formic acid/acetonitrile (90/10) and vortexed vigorously to dissolve. The samples were then transferred to separate polypropylene microcentrifuge tubes and centrifuged at 14000×g for 10 min. (Fisher Micro 14, S/N M0017580). […]
The combined compound samples were injected into the LC-MS system, composed of a Hewlett-Packard HP 1100 diode array HPLC and a Micromass Quattro II triple quadruple mass spectrometer operating in positive electrospray SIR mode (programmed to scan specifically for the molecular ion of each test compound. Each test compound peak was integrated at each timepoint. […]

[2] = target: T1, PDGFRβ (Homo sapiens, UniProt P09619); assay: PAE-PDGFRβ Phosphorylation in PAE-PDGFRB Cells Assay; assay type: cell-based; conditions: PAE cells overexpressing human PDGFRβ; read-out: PAE PDGFR autophos IC50
T1 construct: expressed in transfected cells; host or cells: porcine aorta endothelial (PAE) cells
Method in brief: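 PAE cells overexpressing human PDGFRβ, serum-starved 16 h (0.1% FBS), compound 1 h at 37° C (0.5% DMSO), then 1 μg/mL PDGF-BB with 2 mM Na3VO4 for 8 min. Receptor captured by anti-PDGFRβ, phosphotyrosine detected by HRP-PY20/TMB at 450 nm; IC50 by four-parameter fit.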

[3] = tested on: HUVEC; assay: bFGF Huvec; assay type: cell-based; conditions: Homo sapiens
[4] = target: T2, LCK (Homo sapiens, UniProt P06239, C224D/P223M); assay: Lymphocyte-Specific Protein-Tyrosine Kinase (LCK) spectrophotometric assay; assay type: biochemical; conditions: 1 μM compound; read-out: LckP* % inhibit @1 μM
T2 construct: starting from amino acid residue 223 to the end of the protein at residue 509; made in house; host or cells: insect cells

[5] = tested on: HUVEC; assay: HUVEC + albumin proliferation; assay type: cell-based; conditions: Homo sapiens, 72 h, with albumin
Experimental: This assay determines the ability of a test compound to inhibit the growth factor-stimulated proliferation of human umbilical vein endothelial cells (“HUVEC”). HUVEC cells (passage 3–4, Clonetics, Corp.) were thawed into EGM2 culture medium (Clonetics Corp) in T75 flasks. Fresh EGM2 medium was added to the flasks 24 hours later. Four or five days later, cells were exposed to another culture medium (F12K medium supplemented with 10% fetal bovine serum (FBS), 60 μg/mL endothelial cell growth supplement (ECGS), and 0.1 mg/mL heparin). Exponentially-growing HUVEC cells were used in experiments thereafter. Ten to twelve thousand HUVEC cells were plated in 96-well dishes in 100 μl of rich, culture medium (described above). The cells were allowed to attach for 24 hours in this medium. The medium was then removed by aspiration and 105 μl of starvation media (F12K+1% FBS) was added to each well. After 24 hours, 15 μl of test agent dissolved in 1% DMSO in starvation medium or this vehicle alone was added into each treatment well; the final DMSO concentration was 0.1%. One hour later, 30 μl of VEGF (30 ng/mL) in starvation media was added to all wells except those containing untreated controls; the final VEGF concentration was 6 ng/mL. Cellular proliferation was quantified 72 hours later by MTT dye reduction, at which time cells were exposed for 4 hours MTT (Promega Corp.). Dye reduction was stopped by addition of a stop solution (Promega Corp.) and absorbance at 595λ was determined on a 96-well spectrophotometer plate reader.
IC50 values were calculated by curve-fitting the response of A^595 to various concentrations of the test agent; typically, seven concentrations separated by 0.5 log were employed, with triplicate wells at each concentration. For screening compound library plates, one or two concentrations (one well per concentration) were employed, and the % inhibition was calculated by the following formula: % inhibition=(control−test)[…](control−starvation) where

T1 sequence (P09619 33-1106): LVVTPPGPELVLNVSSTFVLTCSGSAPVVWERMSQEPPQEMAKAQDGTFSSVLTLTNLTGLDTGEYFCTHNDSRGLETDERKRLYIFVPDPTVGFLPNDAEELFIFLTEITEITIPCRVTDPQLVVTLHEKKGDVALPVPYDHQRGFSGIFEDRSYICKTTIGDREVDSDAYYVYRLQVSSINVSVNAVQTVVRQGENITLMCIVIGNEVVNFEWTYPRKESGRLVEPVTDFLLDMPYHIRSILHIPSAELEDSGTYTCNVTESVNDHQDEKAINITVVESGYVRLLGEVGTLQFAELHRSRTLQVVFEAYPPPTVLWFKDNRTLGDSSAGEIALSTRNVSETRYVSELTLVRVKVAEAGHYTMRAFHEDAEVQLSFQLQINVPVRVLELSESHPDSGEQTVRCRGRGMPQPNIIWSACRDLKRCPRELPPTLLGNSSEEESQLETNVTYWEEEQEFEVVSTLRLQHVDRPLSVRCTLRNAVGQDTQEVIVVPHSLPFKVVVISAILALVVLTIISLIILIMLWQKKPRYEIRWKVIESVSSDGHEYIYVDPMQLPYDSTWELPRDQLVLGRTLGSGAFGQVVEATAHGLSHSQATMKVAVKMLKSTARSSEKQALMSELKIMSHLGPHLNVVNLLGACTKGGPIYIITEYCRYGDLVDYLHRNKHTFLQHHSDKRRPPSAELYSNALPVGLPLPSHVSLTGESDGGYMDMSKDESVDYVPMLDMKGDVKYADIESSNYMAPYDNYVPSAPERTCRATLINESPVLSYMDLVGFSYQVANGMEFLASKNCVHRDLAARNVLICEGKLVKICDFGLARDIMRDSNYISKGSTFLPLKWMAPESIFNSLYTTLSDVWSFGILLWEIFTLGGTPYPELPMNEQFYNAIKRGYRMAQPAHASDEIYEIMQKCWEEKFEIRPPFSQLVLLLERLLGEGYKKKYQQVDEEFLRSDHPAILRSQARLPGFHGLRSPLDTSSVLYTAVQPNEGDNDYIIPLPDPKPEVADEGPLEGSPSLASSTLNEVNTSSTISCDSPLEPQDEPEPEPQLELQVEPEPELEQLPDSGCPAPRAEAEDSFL
T2 sequence (P06239 223-509 P223M/C224D): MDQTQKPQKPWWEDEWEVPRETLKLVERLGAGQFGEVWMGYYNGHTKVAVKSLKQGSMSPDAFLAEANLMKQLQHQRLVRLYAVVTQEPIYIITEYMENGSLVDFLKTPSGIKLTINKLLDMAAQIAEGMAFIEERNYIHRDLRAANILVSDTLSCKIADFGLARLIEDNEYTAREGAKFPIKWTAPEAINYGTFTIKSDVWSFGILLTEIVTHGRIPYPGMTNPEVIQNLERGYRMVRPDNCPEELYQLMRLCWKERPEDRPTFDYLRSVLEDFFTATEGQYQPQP

Row | Compound | % remaining (HLM) ([1]; @0.5 h) | IC50 [2] | inhibition at 1 µM [4] | % remaining (HLM) ([1]; @2 h) | IC50 [3] | IC50 [5]
1 | Cc1ccnc(/C=C/c2n[nH]c3cc(Nc4ccccc4C(=O)NC4CC4)ccc23)c1 [Example 2(h), N-Cyclopropyl-2-{3-[(E)-2-(4-methyl-pyridin-2-yl)-vinyl]-1H-indazol-6-ylamino}-benzamide] | 74@0.5 h % | 2.8 nM |  |  | 70 nM | 
2 | COc1ccccc1CNC(=O)c1ccccc1Nc1ccc2c(/C=C/c3ccccn3)n[nH]c2c1 [Example 3(h), N-(2-Methoxy-benzyl)-2-[3-((E)-2-pyridin-2-yl-vinyl)-1H-indazol-6-ylamino]-benzamide] | 75@0.5 h % | 0.63 nM | 37% |  |  | 
3 | C=C(C)CNC(=O)c1ccccc1Nc1ccc2c(/C=C/c3ccccn3)n[nH]c2c1 [Example 3(k), N-(2-Methyl-allyl)-2-[3-((E)-2-pyridin-2-yl-vinyl)-1H-indazol-6-ylamino]-benzamide] | 75@0.5 h % | 5 nM | 19% |  | 1000 nM | 
4 | C#CCNC(=O)c1ccccc1Nc1ccc2c(/C=C/c3cc(C)ccn3)n[nH]c2c1 [Example 32, 2-{3-[(E)-2-(4-Methyl-pyridin-2-yl)-vinyl]-1H-indazol-6-ylamino}-N-prop-2-ynyl-benzamide] | 97@0.5 h % | 0.5 nM |  |  |  | 

The remaining molecules from weak to strong by IC50 [2], led by results:

Row | % remaining (HLM) ([1]; @0.5 h) | IC50 [2] | inhibition at 1 µM [4] | % remaining (HLM) ([1]; @2 h) | Compound | IC50 [3] | IC50 [5]
5 | 80@0.5 h % | 21 nM |  |  | Cc1cc(C)nc(/C=C/c2n[nH]c3cc(Nc4ccccc4C(=O)NCC#CCO)ccc23)c1 [Example 10, 2-{3-[(E)-2-(4,6-Dimethyl-pyridin-2-yl)-vinyl]-1H-indazol-6-ylamino}-N-(4-hydroxy-but-2-ynyl)-benzamide] |  | 
6 | 66@0.5 h % | 5.5 nM |  |  | O=C(NCC#CCO)c1ccccc1Nc1ccc2c(/C=C/c3ccccn3)n[nH]c2c1 [Example 64, N-(4-Hydroxy-but-2-ynyl)-2-[3-(2-pyridin-2-yl-vinyl)-1H-indazol-6-ylamino]-benzamide] | 1250 nM | 
7 | 65@0.5 h % | 4.7 nM | 17% |  | O=C(NC1CCC1)c1ccccc1Nc1ccc2c(/C=C/c3ccccn3)n[nH]c2c1 [Example 3(j), N-Cyclobutyl-2-[3-((E)-2-pyridin-2-yl-vinyl)-1H-indazol-6-ylamino]-benzamide] |  | 
8 |  | 3.5 nM | 11% | 68@2 h % | O=C(NC1CC1)c1ccccc1Nc1ccc2c(/C=C/c3ccccn3)n[nH]c2c1 [Example 3(d), N-Cyclopropyl-2-[3-((E)-2-pyridin-2-yl-vinyl)-1H-indazol-6-ylamino]-benzamide] | 147 nM | 7.5 nM
